These results are taken from patent US12016899B2, “Compositions comprising Sel1-derived peptides and methods of treatment/prevention of excess oxalate levels and associated conditions/diseases therewith” (The University of Chicago, priority 2018, dated 2024).

The test system of test [1] is human intestinal Caco2-BBE (C2) cells. As to the kind of experiment: 14C-oxalate influx (oxalate transport) by Caco2-BBE (C2) cells. Particulars: for effect of trace element added to P8 or P9 on oxalate transport, in words: C2 cells, versus peptide alone. Format: cell-based. As for the experimental part: Toward this end, Of culture conditioned medium (CM) was prepared as recently reported (Ref. 4; herein incorporated by reference in its entirety) and human intestinal Caco2-BBE (C2) cells were used to evaluate the effects of Of CM on intestinal oxalate transport. Apical oxalate uptake by C2 cells was measured by imposing an outward Cl gradient by removing extracellular Cl [Cli>Clo] (Refs. 3, 4, 14; incorporated by reference in their entireties) and measuring DIDS (anion exchange inhibitor)-sensitive influx of 14C-oxalate in exchange for intracellular Cl [i.e. apical Cl-oxalate exchange activity, ≥49% of which is mediated by the oxalate transporter SLC26A6 (A6) in C2 cells (4, 12))].
The inventors sought to identify trace elements to better stimulate oxalate transport by facilitating the binding of P8 and/or P9 to a cell surface receptor. The inventors analyzed combinations of P8 and P9 alone or with aluminum, zinc, or magnesium by measuring C14 oxalate transport in C2 cells.
Background: Passage across Caco-2 layers is used to estimate intestinal permeability.

Test [2] deals with human sigmoid colon organoid. As to the kind of experiment: oxalate transport by human sigmoid colon organoid. Format: cell-based. Here is the method:
(§1) Although the transformed C2 cells resemble the native epithelium, they don't fully recapitulate the in vivo physiological responses. Primary stem-cell derived intestinal organoids (Orgs) were recently established as an ex vivo model of the intestinal epithelium, and they mimic the full spectrum of physiological responses in vivo. Therefore, experiments were conducted during development of embodiments herein to confirm the C2 findings in colonic organoids.
(§2) To recapitulate the findings in vivo, primary stem-cell derived intestinal organoids (Org) were used which have been established as an ex vivo model of the intestinal epithelium with a full spectrum of physiological responses found in vivo (Ref. 35; incorporated by reference in its entirety). A human sigmoid colonic Org (from a healthy individual) was grown and maintained as previously reported (Ref. 34; incorporated by reference in its entirety). Org cells were plated onto collagen-coated transwell filters and formed monolayers. Monolayer confluency and differentiation was confirmed by transepithelial electrical resistance measurements (Ref. 34; incorporated by reference in its entirety).

Test [3] relates to human distal colon organoid. As to the kind of experiment: oxalate transport by human distal colon organoid. Format: cell-based. As for the experimental part:
as §1, §2

Test [4] has as its system human intestinal Caco2-BBE (C2) cells. Particulars: cited from earlier work; for stimulation of oxalate transport by cells (Sel1 proteins), in words: PCT/US18/14494.
In test [5] the test system is human ileum organoid. As to the kind of experiment: oxalate transport by human ileum organoid. Format: cell-based. Particulars: 500 μM DIDS; ileum Org.

“Also recorded” adds a separate entry of the source. Primed or numbered codes have the meaning given here. Where no end group is shown, it is not given here. [ ]: non-standard residue; d: D form. PEG6′ = Peg: PEG6 in place of glycine

For “AKAQY(Peg)L(Peg)ILYAK(Peg)Q(Peg)VAPDQEKALILYRMAATQ(Peg) (AKAQY[PEG6′]L[PEG6′]ILYAK[PEG6′]Q[PEG6′]VAPDQEKALILYRMAATQ[PEG6′]) [Peptide P9-Peg]”, in test [1] (Caco2-BBE cells, listed as P9 with all glycines replaced with PEG6), the “stimulation of oxalate transport (14C-oxalate influx) by C2 cells, in words” value (“stimulation … by C2 cells, in words” below) is “similarly stimulated; also recorded: significantly stimulate”. For “QSQYNLGIAYEEGWGAEKNPENAVFWYRKAAEQGH [Peptide P4]”, the “stimulation of oxalate transport (14C-oxalate influx) by C2 cells” value in test [1] (Caco2-BBE cells) stood at 1.5 fold. Take “DAQYMLGAMSVEGIGLPKDSQVALTWLSKAAAQGD-Am (DAQYMLGAMSVEGIGLPKDSQVALTWLSKAAAQGD-NH2) [Peptide P8-Am]”: in test [1] (Caco2-BBE cells, listed as P8 with C-terminal amidation), the “stimulation … by C2 cells, in words” value was “significantly stimulate”. Consider `[Cl-].[Cl-].[Zn+2]` [zinc chloride], for which, in test [1], the “effect of trace element added to P8 or P9 on oxalate transport, in words” value is reported as “not”. With “AKAQYGLGILYAKGQ(d-alanine)VAPDQEKALILYRMAATQG (AKAQYGLGILYAKGQ[dA]VAPDQEKALILYRMAATQG) [Peptide P9-Daa]”, the “stimulation … by C2 cells, in words” value in test [1] (Caco2-BBE cells, listed as P9 with G16 replaced with D-alanine) was “similarly stimulated; also recorded: significantly stimulate”. Moreover, the “stimulation of oxalate transport by sigmoid colon organoid, in words” value in test [2] is recorded as “significantly stimulate”. The “stimulation of oxalate transport by distal colon organoid, in words” value in test [3] is “significantly stimulate”. Regarding “AKAQYGLGILYAKGQGVAPDQEKALILYRMAATQG-Am (AKAQYGLGILYAKGQGVAPDQEKALILYRMAATQG-NH2) [Peptide P9-Am]”, in test [1] (Caco2-BBE cells, listed as P9 with C-terminal amidation), the “stimulation … by C2 cells, in words” value is “significantly stimulate”. Further, in test [2], the “stimulation of oxalate transport by sigmoid colon organoid, in words” value was “significantly stimulate”. For the same molecule, in test [3], the “stimulation of oxalate transport by distal colon organoid, in words” value is on record as “significantly stimulate”.

For the molecule `O=S(=O)(NCCNC/C=C/c1ccc(Br)cc1)c1cccc2cnccc12` [Peptide H89, H89, reference compound], in test [4] (PKA inhibitor pretreatment, Ref. 4), the “effect of pretreatment on CM-induced oxalate transport” value was “completely blocked”. With `[Al]` [aluminum], in test [1], the “effect of trace element added to P8 or P9 on oxalate transport, in words” value was “did not result in increased oxalate transport”. Consider “Ac-AKAQYGLGILYAKGQGVAPDQEKALILYRMAATQG [Peptide P9-Ac]”, for which, in test [1] (Caco2-BBE cells, listed as P9 with N-terminal acetylation), the “stimulation … by C2 cells, in words” value was “significantly stimulate”. In test [2], the “stimulation of oxalate transport by sigmoid colon organoid, in words” value is “significantly stimulate”. Also, the “stimulation of oxalate transport by distal colon organoid, in words” value in test [3] is reported as “significantly stimulate”. Regarding “DAQYMLA(Peg)MSVE(Peg)I(Peg)LPKDSQVALTWLSKAAAQ(Peg)D (DAQYMLA[PEG6′]MSVE[PEG6′]I[PEG6′]LPKDSQVALTWLSKAAAQ[PEG6′]D) [Peptide P8-Peg]”, the “stimulation … by C2 cells, in words” value in test [1] (Caco2-BBE cells, listed as P8 with all glycines replaced with PEG6) is reported as “similarly stimulated; also recorded: significantly stimulate”. As to “ESQNNLGALYNDGNGVDRDYQEAVFWYRKSALQGD [Peptide P6]”, in test [1] (Caco2-BBE cells), the “stimulation … by C2 cells, in words” value was “no effects”. For “ARAQFNLGKTFYIGAGINKNTDKAVYWFIKAANQG [Peptide P5]”, the “stimulation … by C2 cells, in words” value in test [1] (Caco2-BBE cells) was “no effects”. As to `O=S(=O)(O)c1cc(N=C=S)ccc1C=Cc1ccc(N=C=S)cc1S(=O)(=O)O` [DIDS, reference compound], the “inhibition of oxalate transport” value in test [5] is on record as approximately 80%. Also, the “inhibition of 14C-oxalate influx” value in test [2] (100 μM DIDS, sigmoid colonic Org) is recorded as approximately 70%. In the case of “Ac-DAQYMLGAMSVEGIGLPKDSQVALTWLSKAAAQGD [Peptide P8-Ac]”, the “stimulation … by C2 cells, in words” value in test [1] (Caco2-BBE cells, listed as P8 with N-terminal acetylation) was “significantly stimulate”.

In the case of “DAQYMLGAMSVEGI(d-alanine)LPKDSQVALTWLSKAAAQGD (DAQYMLGAMSVEGI[dA]LPKDSQVALTWLSKAAAQGD) [Peptide P8-Daa]”, in test [1] (Caco2-BBE cells, listed as P8 with G15 replaced with D-alanine), the “stimulation … by C2 cells, in words” value is listed as “similarly stimulated; also recorded: significantly stimulate”.

B1: 301: Sel1 protein 301 (54 kDa) of Oxalobacter formigenes (protein)
chain: MSSVIADSQQPAVSEENANKIILDEEKAVIQCNERYKTENDEKGDEETVSWCRKAAKSGNAEAQYLFGMLVYDGRGVQQDNCVAMLWWMKAAEQNHAKALVMLGNLHRKGQCIAENYPKAIAYWKRAAVQNNVWAYHNLGTAYYDGIGVDKNPHEAVRWWKKAAELGFPESQNNLGALYNDGNGVDRDYQEAVFWYRKSALQGDELGQYNLGVAYYYGRGIKKDFSEAVSWYKKSAEQDYAQAQHNLGVTYYEGEGIKKDYAKAVYWWKKAAEQGIPQSQYNLGIAYEEGWGAEKNPENAVFWYRKAAEQGHADAQNRLGIAYRYGTGVRKNPALSVKWLEKAAKQGLARAQFNLGKTFYIGAGINKNTDKAVYWFIKAANQGFTEAQAYIGMIYFKGKYVAKNEKKGFYWLKKAAEKDSAKAQAFLGALYIAGNEVKPNIKEGVALTKKAALQGNYEAQTLLGFCYENGLEVKKDLIAAYALYLSASPHFDFAEKARLDLERKLSEQEIAKAISVNTAKLFE
Turning to B1, the “stimulation of oxalate transport by cells (Sel1 proteins), in words” value in test [4] is reported as “significantly stimulating; also recorded: most potent stimulators”.

B2: 318: Sel1 protein 318 (52 kDa) of Oxalobacter formigenes (protein)
chain: MKRRVLYGVLFAVLAGCSAGALASVSGLSDGLAQLERRQFESAYATLMPEAEKGNPRAALEVGKLLLTGRGVAKDEAAAVKWLLVAADSGNRDAQYMLGAMSVEGIGLPKDSQVALTWLSKAAAQGDARAKTALGILMQSAGPGSQHTEQAARWFERAAASGEPEAQRRWALMLASGRGVAKNEGEALKWFKKAAVAGDVEAQRNLGIMLSTGKGVTGGKPDFAEAARWYGLAAKKGDAKAQYGLGILYAKGQGVAPDQEKALILYRMAATQGLATAEYAVGLAYAYGRGTAQNDVKAADWFEAAAQQGVVRAQYNLALMLEAGRGRPVDTVAASKWFLMAAEKGLREAQYNMGYHYAEGKGVPRDQGKAVFWYEKAAAAGDVKAQYNLGMLYLNGVNGKADDEKAAFFYRMAAGAGYGPAMYRLAVLYEEGRGVKQSYQLAGEWYERADLAAKVKIDEAMKKNPHPFVQRTLQVPDDLNQSSDKLAGH
Take B2: the “stimulation of oxalate transport by cells (Sel1 proteins), in words” value in test [4] is “significantly stimulating; also recorded: most potent stimulators”.
